# Assay results as given in patent publication US8404670B2 (Sunovion Pharmaceuticals Inc., priority 2009, dated 2013).
# Molecular target: T1, human histamine H3 receptor (Homo sapiens, UniProt Q9Y5N1)
# T1 construct: host or cells: cells expressing the human H3 receptor
# Assay: H3 GTPγS assay (SPA method), histamine H3 in vitro assay
# Type: biochemical
# Settings: GTPγ[35S] binding to membranes of cells expressing human H3; antagonist mode with R-γ-Me-Histamine at EC80 (30 nM); in one embodiment HCl salts tested; read-out: Potency (functional potency as indicated by IC50)
# Method: H3 GTPγS assay (SPA method) was performed at EuroScreen (Belgium, ES-392-C) using conventional methods. Briefly, cells expressing the human histamine H3 receptor were homogenized in 15 mM Tris-HCl pH 7.5, 2 mM MgCl2, 0.3 mM EDTA, and 1 mM EGTA. Membranes were washed twice in the above tris buffer, collected by centrifugation (40,000×g, 25 min), and re-suspended in 75 mM Tris-HCl pH 7.5, 12.5 mM MgCl2, 0.3 mM EDTA, 1 mM EGTA, and 250 mM sucrose. Membranes were frozen in liquid nitrogen until use. On the day of the assay, membranes were thawed and diluted in assay buffer (20 mM HEPES pH 7.4, 100 mM NaCl, 10 μg/ml saponin, 1 mM MgCl2) to give 500 μg/ml and mixed (v/v) with GDP in assay buffer for a final GDP concentration of 10 μM and incubated on ice for at least 15 min. PVT-WGA beads (Amersham, RPNQ001) were diluted in assay buffer at 50 mg/mL and mixed with GTPγ[^35S] (Amersham, SJ1308) diluted in assay buffer to give ˜25,000 dpm/10 μL and mixed vol/vol just before the start of the reaction. The reaction was started by adding 50 μL of test compound, 20 μL of the membranes:GDP mix, 10 μL of buffer, and 20 μL of the GTPγ[^35S]:beads mix in a 96 well plate Optiplate™ (PerkinElmer, 6005299) covered with topseal (TopCount™, PerkinElmer), mixed with an orbital shaker for 2 min, incubated for 1 hour at room temperature, centrifuged for 10 min at 2000 rpm, incubated for 1 h at room temperature, and counted for 1 min in a TopCount™ reader (PerkinElmer). Dose response curves and IC50 values (concentration to inhibit the reaction by 50%) were calculated by nonlinear regression using XLfit software (IDBS).
# For antagonists testing, 10 μL of a reference agonist (R-γ-Me-Histamine) instead of 10 μL buffer was added at a concentration corresponding to the EC80 (30 nM). Control ligands were R-γ-Me-Histamine (Tocris, 0569), Imetit (Sigma, I-135), Thioperamide (Tocris, 0644), and Clobenpropit (Tocris, 0754) diluted in assay buffer.
# The compounds provided herein were tested in the histamine H3 in vitro assay. In one embodiment, the respective HCl salts of the compounds provided herein were prepared using standard chemical procedures and tested in the histamine H3 in vitro assay.
# T1 sequence (Q9Y5N1 whole entry): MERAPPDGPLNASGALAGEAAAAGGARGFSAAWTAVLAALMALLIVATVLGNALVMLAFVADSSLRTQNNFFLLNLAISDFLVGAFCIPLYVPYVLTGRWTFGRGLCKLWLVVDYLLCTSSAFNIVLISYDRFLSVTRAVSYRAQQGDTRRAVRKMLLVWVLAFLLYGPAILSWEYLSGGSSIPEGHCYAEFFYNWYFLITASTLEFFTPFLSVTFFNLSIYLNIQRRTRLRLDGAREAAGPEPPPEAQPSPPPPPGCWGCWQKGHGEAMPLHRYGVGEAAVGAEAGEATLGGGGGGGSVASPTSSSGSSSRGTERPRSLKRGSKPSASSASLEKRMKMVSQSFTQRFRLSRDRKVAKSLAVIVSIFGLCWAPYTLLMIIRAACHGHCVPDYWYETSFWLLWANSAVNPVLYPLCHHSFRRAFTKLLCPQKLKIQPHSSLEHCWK
row,Compound,IC50
1,"c1c2c(cc3c1nc1n3CCN(C3CCC3)CC1)CN(CC1CC1)C2 [Compound 147, 8-cyclobutyl-2-(cyclopropylmethyl)-1,2,3,6,7,8,9,10-octahydro-[1,4]diazepino[1′,7′:1,2]imidazo[4,5-f]isoindole]",≤ 10 nM
2,"c1ccc(CN2CCN(c3ccc4c(c3)nc3n4CCN(C4CCC4)CC3)CC2)cc1 [Compound 224, 8-(4-benzylpiperazin-1-yl)-3-cyclobutyl-2,3,4,5-tetrahydro-1H-benzo[4,5]imidazo[1,2-d][1,4]diazepine]",≤ 10 nM
3,"CC1CCC(N2CCc3nc4cc(-c5ccc(C#N)cc5)ccc4n3CC2)CC1 (mixture of isomers) [Compound 37, cis/trans-4-(3-(4-methylcyclohexyl)-2,3,4,5-tetrahydro-1H-[1,4]diazepino[1,7-a]benzimidazol-9-yl)benzonitrile]",≥ 1000 nM
4,"c1csc(N2CCN(c3ccc4c(c3)nc3n4CCN(C4CCC4)CC3)CC2)n1 [Compound 232, 2-(4-(3-cyclobutyl-2,3,4,5-tetrahydro-1H-benzo[4,5]imidazo[1,2-d][1,4]diazepin-8-yl)piperazin-1-yl)thiazole]",≤ 10 nM
5,"FC1(F)CCN(Cc2ccc3c(c2)nc2n3CCN(C3CCC3)CC2)C1 [Compound 166, 3-cyclobutyl-8-((3,3-difluoropyrrolidin-1-yl)methyl)-2,3,4,5-tetrahydro-1H-benzo[4,5]imidazo[1,2-d][1,4]diazepine]",≤ 10 nM
6,CC(=O)Nc1ccc(-c2ccc3c(c2)nc2n3CCN(C3CCC3)CC2)cc1 [Compound 3],≤ 10 nM
7,"c1ncc(-c2ccc3c(c2)nc2n3CCN(C3CCC3)CC2)cn1 [Compound 126, 3-cyclobutyl-8-(pyrimidin-5-yl)-2,3,4,5-tetrahydro-1H-benzo[4,5]imidazo[1,2-d][1,4]diazepine]",≤ 10 nM
8,"FC1CCN(Cc2ccc3c(c2)nc2n3CCN(C3CCC3)CC2)C1 (stereo not shown) [Compound 165, 3-cyclobutyl-8-((3-fluoropyrrolidin-1-yl)methyl)-2,3,4,5-tetrahydro-1H-benzo[4,5]imidazo[1,2-d][1,4]diazepine]",≤ 100 nM
9,"c1nc2ccc(-c3ccc4c(c3)nc3n4CCN(C4CCC4)CC3)cn2n1 [Compound 203, 8-([1,2,4]triazolo[1,5-a]pyridin-6-yl)-3-cyclobutyl-2,3,4,5-tetrahydro-1H-benzo[4,5]imidazo[1,2-d][1,4]diazepine]",≤ 100 nM
10,O=C(C1CCC1)N1CCCC(c2ccc3c(c2)nc2n3CCN(C3CCC3)CC2)C1 (stereo not shown) [Compound 174],≤ 10 nM
11,"N#Cc1ccc(OCc2ccc3nc4n(c3c2)CCN(C2CCC2)CC4)nc1 [Compound 112, 6-((3-cyclobutyl-2,3,4,5-tetrahydro-1H-[1,4]diazepino[1,7-a]benzimidazol-8-yl)methoxy)nicotino-nitrile]",≤ 1000 nM
12,O=C(c1ccc2c(c1)nc1n2CCN(C2CCC2)CC1)N1CCCC1 [Compound 60],≤ 100 nM
13,"FC1(F)CCN(Cc2ccc3c(c2)nc2n3CCN(C3CCC3)CC2)CC1 [Compound 160, 3-cyclobutyl-8-((4,4-difluoropiperidin-1-yl)methyl)-2,3,4,5-tetrahydro-1H-benzo[4,5]imidazo[1,2-d][1,4]diazepine]",≤ 10 nM
14,"NCc1ccc(-c2ccc3c(c2)nc2n3CCN(C3CCC3)CC2)cc1 [Compound 1, 3-cyclobutyl-9-(4-(aminomethyl)phenyl)-2,3,4,5-tetrahydro-1H-[1.4]diazepino[1,7-a]benzimidazole]",≤ 10 nM
15,"c1cc2ncc(-c3ccc4c(c3)nc3n4CCN(C4CCC4)CC3)cc2o1 [Compound 201, 6-(3-cyclobutyl-2,3,4,5-tetrahydro-1H-benzo[4,5]imidazo[1,2-d][1,4]diazepin-8-yl)furo[3,2-b]pyridine]",≤ 10 nM
16,COc1ccnc(Oc2ccc3nc4n(c3c2)CCN(C2CCC2)CC4)n1 [Compound 78],≤ 1000 nM
17,"O=c1[nH]c2ccccc2n1-c1ccc2c(c1)nc1n2CCN(C2CCC2)CC1 [Compound 72, 1-(3-cyclobutyl-2,3,4,5-tetrahydro-1H-[1,4]diazepino[1,7-a]benzimidazol-9-yl)-1H-benzo[d]imidazol-2(3H)-one]",≤ 100 nM
18,c1coc(-c2ccc3nc4n(c3c2)CCN(C2CCC2)CC4)c1 [Compound 90],≤ 1000 nM
19,"c1ccc(N2CCN(c3ccc4nc5n(c4c3)CCN(C3CCC3)CC5)CC2)nc1 [Compound 234, 3-cyclobutyl-9-(4-(pyridin-2-yl)piperazin-1-yl)-2,3,4,5-tetrahydro-1H-benzo[4,5]imidazo[1,2-d][1,4]diazepine]",≤ 100 nM

row,Compound,IC50
1,"Cn1cc2ccc(-c3ccc4c(c3)nc3n4CCN(C4CCC4)CC3)cc2n1 [Compound 206, 3-cyclobutyl-8-(2-methyl-2H-indazol-6-yl)-2,3,4,5-tetrahydro-1H-benzo[4,5]imidazo[1,2-d][1,4]diazepine]",≤ 100 nM
2,Clc1ccc2c(c1)nc1n2CCN(Cc2cnc[nH]2)CC1 [Compound 15],≥ 1000 nM
3,"CC(=O)N1CCc2cc3c(cc2C1)nc1n3CCN(C2CCC2)CC1 [Compound 187, 1-(9-cyclobutyl-3,4,8,9,10,11-hexahydro-1H-[1,4]diazepino[7′,1′:2,3]imidazo[4,5-g]isoquinolin-2(7H)-yl)ethanone]",≤ 10 nM
4,"O=C(C1CCC1)N1CCc2cc3c(cc2C1)nc1n3CCN(C2CCC2)CC1 [Compound 186, cyclobutyl(9-cyclobutyl-3,4,8,9,10,11-hexahydro-1H-[1,4]diazepino[7′,1′:2,3]imidazo[4,5-g]isoquinolin-2(7H)-yl)methanone]",≤ 100 nM
5,"N#Cc1ccc(C(=O)N2CCN(c3ccc4c(c3)nc3n4CCN(C4CCC4)CC3)CC2)cc1 [Compound 168, 4-(4-(3-cyclobutyl-2,3,4,5-tetrahydro-1H-benzo[4,5]imidazo[1,2-d][1,4]diazepin-8-yl)piperazine-1-carbonyl)benzonitrile]",≤ 10 nM
6,CN(C)Cc1ccc2c(c1)nc1n2CCN(C2CCC2)CC1 [Compound 105],≤ 100 nM
7,"c1cc2c(cc1-c1ccc3nncn3c1)nc1n2CCN(C2CCC2)CC1 [Compound 204, 8-([1,2,4]triazolo[4,3-a]pyridin-6-yl)-3-cyclobutyl-2,3,4,5-tetrahydro-1H-benzo[4,5]imidazo[1,2-d][1,4]diazepine]",≤ 10 nM
8,COc1ccnc(Nc2ccc3c(c2)nc2n3CCN(C3CCC3)CC2)n1 [Compound 64],≤ 100 nM
9,c1cc2cc(-c3ccc4c(c3)nc3n4CCN(C4CCC4)CC3)ccc2[nH]1 [Compound 4],≤ 100 nM
10,NCc1ccc(-c2cnc3c(c2)nc2n3CCN(C3CCC3)CC2)cc1 [Compound 239],≤ 100 nM
11,"O=C1CCc2cc(-c3ccc4c(c3)nc3n4CCN(C4CCC4)CC3)ccc2N1 [Compound 216, 6-(3-cyclobutyl-2,3,4,5-tetrahydro-1H-benzo[4,5]imidazo[1,2-d][1,4]diazepin-8-yl)-3,4-dihydroquinolin-2(1H)-one]",≤ 10 nM
12,c1coc(-c2cnc3c(c2)nc2n3CCN(C3CCC3)CC2)c1 [Compound 238],≤ 1000 nM
13,COc1ccnc(OCc2ccc3nc4n(c3c2)CCN(C2CCC2)CC4)n1 [Compound 111],≤ 1000 nM
14,"CN(C)CCc1ccc2c(c1)nc1n2CCN(C2CCC2)CC1 [Compound 139, 2-(3-cyclobutyl-2,3,4,5-tetrahydro-1H-benzo[4,5]imidazo[1,2-d][1,4]diazepin-8-yl)-N,N-dimethylethanamine]",≤ 100 nM
15,"c1nc2cc(-c3ccc4c(c3)nc3n4CCN(C4CCC4)CC3)ccc2[nH]1 [Compound 217, 8-(1H-benzo[d]imidazol-5-yl)-3-cyclobutyl-2,3,4,5-tetrahydro-1H-benzo[4,5]imidazo[1,2-d][1,4]diazepine]",≤ 100 nM
16,"N#Cc1ccc(C(=O)N2CCc3cc4nc5n(c4cc3C2)CCN(C2CCC2)CC5)cc1 [Compound 192, 4-(9-cyclobutyl-2,3,4,7,8,9,10,11-octahydro-1H-[1,4]diazepino[1′,7′:1,2]imidazo[4,5-g]isoquinoline-2-carbonyl)benzonitrile]",≤ 100 nM
17,"COc1cccc(-c2ccc3c(c2)nc2n3CCN(C3CCC3)CC2)n1 [Compound 137, 3-cyclobutyl-8-(6-methoxypyridin-2-yl)-2,3,4,5-tetrahydro-1H-benzo[4,5]imidazo[1,2-d][1,4]diazepine]",≤ 100 nM
18,"O=C(c1cnccn1)N1CCCC(c2ccc3c(c2)nc2n3CCN(C3CCC3)CC2)C1 (stereo not shown) [Compound 173, (3-(3-cyclobutyl-2,3,4,5-tetrahydro-1H-benzo[4,5]imidazo[1,2-d][1,4]diazepin-8-yl)piperidin-1-yl)(pyrazin-2-yl)methanone]",≤ 100 nM
